Results published in patent US10421778B2, “Isoform-selective lysine deacetylase inhibitors” (WASHINGTON UNIVERSITY, priority 2015, dated 2019).
Marks after values point to notes of the source that are not given here. Positions of bridges follow the written chain, without caps; N, C: chain ends. Non-standard residues stand in square brackets, D forms with d. Residues, ends and D or L forms follow the SMILES beside them. *: point of attachment. GABA = NCCCC(=O)O; NHOH = ON*

Legend:
Assay in all cases: KDAC inhibition assay, Caliper EZ Reader II
Assay type in all cases: biochemical
[1] = biological target: T1, recombinant human KDAC1 (Homo sapiens, UniProt Q13547); conditions: for KDAC Inhibition Activity KDAC1 (% inhibition): % inhibition at 30 μM; for IC50: 10-point dose curve from 30 μM
T1 construct: purchased BPS Bioscience
T1 sequence (Q13547 whole entry): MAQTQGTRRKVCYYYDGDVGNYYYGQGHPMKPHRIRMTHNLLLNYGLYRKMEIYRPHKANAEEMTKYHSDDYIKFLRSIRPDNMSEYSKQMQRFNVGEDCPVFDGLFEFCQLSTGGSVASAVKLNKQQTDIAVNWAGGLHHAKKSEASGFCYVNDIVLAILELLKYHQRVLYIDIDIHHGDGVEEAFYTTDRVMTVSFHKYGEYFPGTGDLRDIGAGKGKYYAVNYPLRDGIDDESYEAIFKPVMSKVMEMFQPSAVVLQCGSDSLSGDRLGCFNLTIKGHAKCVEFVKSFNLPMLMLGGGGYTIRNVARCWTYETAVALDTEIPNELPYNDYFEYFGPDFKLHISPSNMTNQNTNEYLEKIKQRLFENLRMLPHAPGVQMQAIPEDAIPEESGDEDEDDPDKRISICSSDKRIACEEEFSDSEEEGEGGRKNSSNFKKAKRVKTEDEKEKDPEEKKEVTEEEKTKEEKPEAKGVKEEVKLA

[2] = biological target: T2, recombinant human KDAC6 (Homo sapiens, UniProt Q9UBN7); conditions: for KDAC Inhibition Activity KDAC6 (% inhibition): % inhibition at 30 μM
T2 construct: purchased BPS Bioscience
T2 sequence (Q9UBN7 1-1215): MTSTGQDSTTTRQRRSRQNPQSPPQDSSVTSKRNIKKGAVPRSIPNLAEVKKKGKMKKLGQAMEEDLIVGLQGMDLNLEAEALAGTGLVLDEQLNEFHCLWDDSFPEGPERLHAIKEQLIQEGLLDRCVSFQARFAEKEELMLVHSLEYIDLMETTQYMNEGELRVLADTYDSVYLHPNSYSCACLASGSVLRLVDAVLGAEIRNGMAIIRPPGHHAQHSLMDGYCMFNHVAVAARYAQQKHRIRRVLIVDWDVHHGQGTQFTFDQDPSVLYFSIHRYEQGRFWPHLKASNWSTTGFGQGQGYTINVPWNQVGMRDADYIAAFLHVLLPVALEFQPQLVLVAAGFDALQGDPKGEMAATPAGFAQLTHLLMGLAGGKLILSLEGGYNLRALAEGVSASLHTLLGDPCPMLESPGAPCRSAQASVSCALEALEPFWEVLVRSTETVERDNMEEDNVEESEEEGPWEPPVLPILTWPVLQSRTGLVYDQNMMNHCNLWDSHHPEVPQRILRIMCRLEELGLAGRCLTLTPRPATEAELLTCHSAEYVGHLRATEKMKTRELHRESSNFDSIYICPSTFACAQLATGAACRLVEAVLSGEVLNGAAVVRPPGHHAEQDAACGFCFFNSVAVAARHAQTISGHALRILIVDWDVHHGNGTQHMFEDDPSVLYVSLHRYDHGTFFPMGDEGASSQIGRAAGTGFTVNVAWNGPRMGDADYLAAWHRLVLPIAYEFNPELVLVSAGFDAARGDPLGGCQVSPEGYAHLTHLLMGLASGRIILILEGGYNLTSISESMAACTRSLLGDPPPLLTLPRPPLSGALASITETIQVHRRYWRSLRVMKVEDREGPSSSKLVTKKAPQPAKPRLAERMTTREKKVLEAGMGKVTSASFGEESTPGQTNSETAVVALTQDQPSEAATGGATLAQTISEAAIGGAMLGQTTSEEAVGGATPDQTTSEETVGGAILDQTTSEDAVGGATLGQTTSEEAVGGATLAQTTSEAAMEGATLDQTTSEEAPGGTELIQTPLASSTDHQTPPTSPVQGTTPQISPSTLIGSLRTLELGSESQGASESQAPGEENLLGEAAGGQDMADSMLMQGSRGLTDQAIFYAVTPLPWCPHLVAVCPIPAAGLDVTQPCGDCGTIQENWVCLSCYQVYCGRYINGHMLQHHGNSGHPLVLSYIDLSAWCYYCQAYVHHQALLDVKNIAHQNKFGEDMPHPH

[3] = biological target: T3, recombinant human KDAC3 (Homo sapiens, UniProt O15379); conditions: for KDAC Inhibition Activity KDAC3 (% inhibition): % inhibition at 30 μM; for IC50: 10-point dose curve from 30 μM, read-out: KDAC Inhibition Activity (IC50) KDAC3
T3 construct: purchased BPS Bioscience
T3 sequence (O15379 whole entry): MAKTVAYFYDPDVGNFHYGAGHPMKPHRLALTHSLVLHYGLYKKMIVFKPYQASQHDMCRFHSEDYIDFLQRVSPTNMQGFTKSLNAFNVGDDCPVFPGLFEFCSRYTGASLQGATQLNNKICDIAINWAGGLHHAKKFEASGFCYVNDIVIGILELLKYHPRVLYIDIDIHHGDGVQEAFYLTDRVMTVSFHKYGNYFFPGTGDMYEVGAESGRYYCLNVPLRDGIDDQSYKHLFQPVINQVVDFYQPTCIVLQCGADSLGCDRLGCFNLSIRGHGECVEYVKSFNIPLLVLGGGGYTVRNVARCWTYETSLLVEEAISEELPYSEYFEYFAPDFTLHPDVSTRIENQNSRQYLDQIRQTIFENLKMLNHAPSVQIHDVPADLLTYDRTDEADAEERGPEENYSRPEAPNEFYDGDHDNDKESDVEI
T3 sequence (Q9Y618 395-489 partner limits assumed): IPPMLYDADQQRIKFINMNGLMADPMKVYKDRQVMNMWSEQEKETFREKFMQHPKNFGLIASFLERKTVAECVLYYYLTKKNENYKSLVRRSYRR

[4] = biological target: T4, recombinant human KDAC8 (Homo sapiens, UniProt Q9BY41); conditions: for KDAC Inhibition Activity KDAC8 (% inhibition): % inhibition at 30 μM
T4 construct: purchased BPS Bioscience
T4 sequence (Q9BY41 1-377): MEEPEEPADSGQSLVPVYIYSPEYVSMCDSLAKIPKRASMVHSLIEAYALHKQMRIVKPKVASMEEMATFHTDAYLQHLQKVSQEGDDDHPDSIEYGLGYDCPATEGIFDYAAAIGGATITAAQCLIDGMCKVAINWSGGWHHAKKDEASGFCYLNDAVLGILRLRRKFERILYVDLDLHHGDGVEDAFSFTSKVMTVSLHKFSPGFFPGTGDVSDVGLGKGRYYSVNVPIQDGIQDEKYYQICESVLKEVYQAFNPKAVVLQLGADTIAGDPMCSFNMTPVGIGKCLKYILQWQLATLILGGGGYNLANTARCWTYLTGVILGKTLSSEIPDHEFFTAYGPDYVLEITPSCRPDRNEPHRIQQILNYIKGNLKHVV

Row | Compound | KDAC Inhibition Activity KDAC1 (% inhibition) [1] | KDAC Inhibition Activity KDAC6 (% inhibition) [2] | KDAC Inhibition Activity KDAC3 (% inhibition) [3] | KDAC Inhibition Activity KDAC8 (% inhibition) [4] | further results
1 | Cyclo-Asp(Pro-^DPro-Val)-NHCH2CH2CH2OH [Compound 22a] | Not active | Not active | 7% | Not active | 
2 | CC(C)[C@@H]1NC(=O)[C@@H]2CCCN2C(=O)[C@H]2CCCN2C(=O)C[C@H](C(=O)O)NC1=O [Compound 3b, Cyclo-^DAsp(^DPro-Pro-Val)-OH] ([dP]PV[dD]-OH; lactam N-4) |  |  |  |  | inhibition at 30 µM [1]: 2.5%; inhibition at 30 µM [3]: 3%
3 | Cyclo-Asp(^DPro-Pro-Val)-NHCH2CH2SH [Compound 5a] | Not active | 14% | Not active | 12% | 
4 | Cyclo-^DAsp(^DPro-Pro-Val)-NHCH2CH2CH2OH [Compound 10b] | 1% | 1% | 9% | 25% | 
5 | Cyclo-^DAsp(Pro-^DPro-Val)-NHCH2CH2CH2COOMe [Compound 23b] | 1% | 5% | Not active | 7% | 
6 | [Cyclo-^DAsp(Pro-^DPro-Val)-NHCH2CH2CH2S]2 [Compound 38b] |  | 40% | 19% | 3% | 
7 | CC(C)[C@@H]1NC(=O)[C@H]2CCCN2C(=O)[C@@H]2CCCN2C(=O)C[C@@H](C(=O)NCCCC(=O)NO)NC1=O [Compound 25a, Cyclo-Asp(Pro-^DPro-Val)-NHCH2CH2CH2CONHOH] (P[dP]VD[GABA]-{NHOH}; lactam N-4) |  |  |  |  | inhibition at 30 µM [1]: 25%; IC50 [1]: > 30 µM; inhibition at 30 µM [2]: 80%; inhibition at 30 µM [3]: 45%; IC50 [3]: > 30 µM; inhibition at 30 µM [4]: 34%; IC50 ([4]; 10-point dose curve from 30 μM): > 30 µM
8 | Cyclo-^DAsp(^DPro-Pro-Val)-NHCH2CH2S—SCH2CH2NH2 [Compound 15b] | 5% | 7% | 7% | Not active | 
9 | Cyclo-Asp(^DPro-Pro-Val)-NHCH2CH2CH2SCH3 [Compound 7a] | Not active | 6% | Not active | 5% | 
10 | Cyclo-Asp(^DPro-Pro-Val)-NHCH2CH2CH2S(═O)2CH3 [Compound 9a] | Not active | Not active | 4% | 17% | 
11 | [Cyclo-Asp(^DPro-Pro-Val)-NHCH2CH2S]2 [Compound 35a] |  |  | 2% |  | 
12 | Cyclo-^DAsp(^DPro-Pro-Val)-NHCH2CH2CH2S(═O)CH3 [Compound 8b] | 3.5% | 3% | 5% | 38% | 
13 | Cyclo-Asp(^DPro-Pro-Val)-NHCH2CH2CH2NH2 [Compound 16a] | Not active | 2%^a | 14%^a | 22%^a | 
14 | Cyclo-^DAsp(^DPro-Pro-Val)-NHCH2CH2CH2S(═O)2CH3 [Compound 9b] | 4% | 1% | 3% | 22% | 
15 | [Cyclo-^DAsp(^DPro-Pro-Val)-NHCH2CH2S]2 [Compound 35b] |  | 6% |  | 9% | 
16 | [Cyclo-Asp(^DPro-Pro-Val)-NHCH2CH2CH2S]2 [Compound 37a] |  | 9% |  | 6% | 
17 | Cyclo-Asp(^DPro-Pro-Val)-OBn [Compound 1a] |  | 6% |  | 9% | 
18 | [Cyclo-Asp(Pro-^DPro-Val)-NHCH2CH2S]2 [Compound 36a] |  |  |  | 2% | 
19 | Nc1ccccc1NC(=O)c1ccc(-c2cn(CCc3ccsc3)nn2)cc1 [Compound T247, N-(2-Aminophenyl)-4-[1-(2-thiophen-3-ylethyl)-1H-[1,2,3]triazol-4-yl]benzamide, reference compound] |  |  |  |  | IC50 [1]: 1.11 µM; IC50 [3]: 3.94 µM
20 | CC(C)[C@@H]1NC(=O)[C@@H]2CCCN2C(=O)[C@H]2CCCN2C(=O)C[C@@H](C(=O)O)NC1=O [Compound 3a, Cyclo-Asp(^DPro-Pro-Val)-OH] ([dP]PVD-OH; lactam N-4) |  |  |  |  | inhibition at 30 µM [3]: 1%
21 | Cyclo-^DAsp(Pro-^DPro-Val)-OBn [Compound 2b] | 1.5% | 10% | 1% |  | 
22 | Cyclo-Asp(Pro-^DPro-Val)-OH [Compound 4a] |  |  | 24% |  | 
23 | [Cyclo-DAsp(Pro-DPro-Val)-NHCH2CH2S]2 [Compound 36b] |  | 4% |  | 2% | 
24 | Cyclo-Asp(Pro-^DPro-Val)-OBn [Compound 2a] |  |  |  | 14% | 
25 | [Cyclo-Asp(Pro-^DPro-Val)-NHCH2CH2CH2S]2 [Compound 38a] |  | 21% | 10% |  | 
26 | Cyclo-DAsp(Pro-DPro-Val)-OH [Compound 4b] |  | 10% | 5% | 4% | 
27 | [Cyclo-^DAsp(^DPro-Pro-Val)-NHCH2CH2CH2S]2 [Compound 37b] | 1% | 8% | 53% |  | 
